From patent publication US20230112641A1, “METHODS OF TREATING DIARRHEA OR INFLAMMATORY CONDITIONS OF THE GUT” (ABBOTT LABORATORIES, priority 2020, published 2023)

Biological target: T1, human GPR109A (Homo sapiens, UniProt Q8TDS4)
T1 construct: expressed in transfected cells
Assay: Intracellular cAMP levels in forskolin-treated GPR109A-expressing colonic cells, measured by fluorescence (cAMP-Glo Assay)
Type: cell-based
Details: cAMP reduction in forskolin-treated cells; read-out: EC50 to activate the GPR109A receptors
Source text: The activity of GI-coupled receptors like GPR109A is normally assessed by showing a reduction in cellular levels of cAMP in forskolin-treated cells. This is normally done using the commercially available kit, cAMP-Glo™ Assay. […] When a GI-coupled receptor is activated in forskolin-treated cells, cAMP levels will go up.

T1 sequence (Q8TDS4 whole entry): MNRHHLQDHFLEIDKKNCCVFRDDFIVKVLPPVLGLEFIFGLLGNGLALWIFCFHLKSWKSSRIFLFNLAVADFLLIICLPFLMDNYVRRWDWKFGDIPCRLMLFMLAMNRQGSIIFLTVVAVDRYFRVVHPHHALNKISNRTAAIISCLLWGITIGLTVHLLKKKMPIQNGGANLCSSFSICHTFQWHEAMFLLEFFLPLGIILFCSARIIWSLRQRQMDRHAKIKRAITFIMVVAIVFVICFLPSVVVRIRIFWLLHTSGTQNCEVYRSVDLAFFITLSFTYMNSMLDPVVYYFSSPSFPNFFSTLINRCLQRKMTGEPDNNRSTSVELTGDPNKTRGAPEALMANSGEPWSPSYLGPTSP

- EC50: 250 to 2500 µM
SMILES: CC(C)(O)CC(=O)O [HMB, beta-hydroxy-beta-methylbutyrate]
